In this test the target is T1, human PPAR alpha (Homo sapiens, UniProt Q07869).
T1 construct: expressed in transfected cells; host or cells: U2-OS (human osteogenic sarcoma), transient electroporation of a pSG5-based expression vector
T1 sequence (Q07869 239-466 limits assumed): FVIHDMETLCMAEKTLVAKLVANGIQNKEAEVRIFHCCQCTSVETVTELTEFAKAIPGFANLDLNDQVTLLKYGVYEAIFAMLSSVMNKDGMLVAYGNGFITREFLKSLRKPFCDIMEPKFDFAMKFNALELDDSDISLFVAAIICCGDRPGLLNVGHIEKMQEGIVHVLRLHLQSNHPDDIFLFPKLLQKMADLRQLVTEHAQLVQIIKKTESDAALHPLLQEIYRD
In words: GAL4-PPARα ligand binding domain luciferase reporter transactivation assay in transiently transfected U2-OS cells. It counts as cell-based. To be noted: about 24 hours exposure, concentration giving 50% of maximal activation by reference compound ETYA. As to the method:
U2-OS, (Osteogenic sarcoma, Human) was purchased from ATCC, USA. Cells were expanded and refrozen in batches from passage number six. Cells were cultured in Dulbecco's modified Eagle medium (DMEM) with 25 mM glucose, 2 mM glutamine or 4 mM L-alanyl-L-glutamine, 10% fetal calf serum, at 5% CO2. Phosphate buffered saline (PBS) without addition of calcium or magnesium was used. All cell culture reagents were from Gibco (USA) and 96-well cell culture plates were purchased from Wallach.
Standard recombinant DNA techniques were carried out as described by Ausubel (7). The Luciferase reporter vector, pGL5UAS (clone consists of five copies of the GAL4 DNA binding sequence, 5′-[…]-3′, cloned into the SacI/XhoI sites of pGL3-Promoter (Promega). The SacI/XhoI fragment carrying the UAS sites was constructed using annealed overlapping oligonucleotides.
Expression vectors used are based upon pSG5 (Stratagene). All vectors contain an EcoRI/NheI fragment encoding the DNA binding domain of GAL4 (encoding amino acid positions 1-145 of database accession number P04386) followed by an in-frame fusion to a fragment encoding the nuclear localisation sequence from T antigen of Polyoma Virus. […]
After adjustment of the amount of cell medium to 75 μl in each well, 50 μl test compound solution was added. […] After lysis, luciferase activity was measured in a 1420 Multiwell counter, Victor, from Wallach. […]
A general note: Reporter assays use an easily measured gene product as a stand-in for the process of interest.

As for `CCN(Cc1ccc(Cl)cc1)C(=O)COc1ccc(CCSc2ccccc2C(=O)O)cc1` [Example 3, 2-{[2-(4-{2-[(4-chlorobenzyl)(ethyl)amino]-2-oxoethoxy}phenyl)ethyl]thio}benzoic acid], it took 499 nM to reach a half-maximal effect (EC50). For the molecule `CCN(Cc1ccc(C(F)(F)F)cc1)C(=O)COc1ccc(CCOc2ccccc2C(=O)O)cc1` [Example 5, 2-[2-(4-{2-[Ethyl(4-trifluoromethylbenzyl)amino]-2-oxoethoxy}phenyl)ethoxy]benzoic acid], the response was half-maximal at 48 nM (EC50).

In general, EC50 refers to the concentration needed to bring the measured effect to its halfway point. A low value points to greater potency.

These data come from US7351858B2, “Ortho-substituted benzoic acid derivatives for the treatment of insulin resistance” (AstraZeneca AB, priority 2002, dated 2008).
